# Laboratory results as given in patent US10925855B2, “Compositions comprising water dispersible nanoparticles of a retinoid compound” (GALDERMA RESEARCH & DEVELOPMENT, priority 2015, dated 2021).
# Assay: Stabilizer screening (colloid stability after precipitation)
# Format: physicochemical
# Conditions: Compound A 1.0 mg; for Observation: Stable for: at RT
# Method: If the colloid solution was stable over 2 hours (no aggregation, sedimentation, crystal forming), and no aggregation occurred, the sample was lyophilized. • If precipitation occurred, however the colloid solution was not stable over the whole solid formulation procedure, other stabilizers were tested. Results
structure (smiles),measurement,setting,value
"CC(C)(C)c1cc(-c2cc(-c3ccc(C(=O)O)cc3)ccc2OCCO)ccc1N1CCCC1 [Compound A, 3″-tert-butyl-4′-(2-hydroxyethoxy)-4″-pyrrolidin-1-yl[1,1′;3′,1″]-terphenyl-4-carboxylic acid]",Observation,"2 mg PVP10, 1 mL EtOH, 7 mL 0.05 mg/mL SDS solution",Aggregated immediately
same,Observation,"2 mg PVP10, 1 mL EtOH, 7 mL 0.05 mg/mL citric acid solution",Aggregated immediately
same,Observation,"2 mg PVP10, 1 mL EtOH, 7 mL 0.5 mg/mL BAC solution",Aggregated immediately
same,Observation: Aggregated within,"2 mg PVP10, 1 mL EtOH, 7 mL 0.5 mg/mL DSS solution",Aggregated within 1 hour
same,Observation,"2 mg PVP10, 1 mL EtOH, 7 mL 0.5 mg/mL Mannitol solution",Aggregated immediately
same,Observation,"2 mg PVP10, 1 mL EtOH, 7 mL 0.5 mg/mL NaOAc solution",Aggregated immediately
same,Observation: Aggregated within,"2 mg PVP10, 1 mL EtOH, 7 mL 0.5 mg/mL SDS solution",Aggregated within 1 hour
same,Observation,"2 mg PVP10, 1 mL IPA, 4 mL water",Aggregated
same,Observation,"2 mg PVP10, 1 mL MeOH, 4 mL water",Precipitation did not occur
same,"Observation: Colloid, Stable for","2 mg PVP40, 1 mL EtOH, 4 mL water","Colloid, Stable for 15 min"
same,Observation,"2 mg PVP40, 1 mL EtOH, 7 mL 0.05 mg/mL BAC solution",Aggregated immediately
same,Observation,"2 mg PVP40, 1 mL EtOH, 7 mL 0.05 mg/mL DSS solution",Aggregated immediately
same,Observation,"2 mg PVP40, 1 mL EtOH, 7 mL 0.05 mg/mL Mannitol solution",Aggregated immediately
same,Observation,"2 mg PVP40, 1 mL EtOH, 7 mL 0.05 mg/mL NaOAc solution",Aggregated immediately
same,Observation,"2 mg PVP40, 1 mL EtOH, 7 mL 0.05 mg/mL SDS solution",Aggregated immediately
same,Observation,"2 mg PVP40, 1 mL EtOH, 7 mL 0.05 mg/mL citric acid solution",Aggregated immediately
same,Observation,"2 mg PVP40, 1 mL EtOH, 7 mL 0.5 mg/mL BAC solution",Aggregated immediately
same,Observation: Aggregated within,"2 mg PVP40, 1 mL EtOH, 7 mL 0.5 mg/mL DSS solution",Aggregated within 1 hour
same,Observation,"2 mg PVP40, 1 mL EtOH, 7 mL 0.5 mg/mL Mannitol solution",Aggregated immediately
same,Observation: Aggregated within,"2 mg PVP40, 1 mL EtOH, 7 mL 0.5 mg/mL NaOAc solution",Aggregated within 1 hour
same,Observation: Aggregated within,"2 mg PVP40, 1 mL EtOH, 7 mL 0.5 mg/mL SDS solution",Aggregated within 1 hour
same,Observation,"2 mg PVP40, 1 mL EtOH, 7 mL 0.5 mg/mL citric acid solution",Aggregated immediately
same,Observation,"2 mg PVP40, 1 mL IPA, 4 mL water",Aggregated
same,Observation,"2 mg PVP40, 1 mL MeOH, 4 mL water",Precipitation did not occur
same,"Observation: Colloid, Stable for","2 mg PVPK90, 1 mL EtOH, 4 mL water","Colloid, Stable for 5 min"
same,Observation,"2 mg PVPK90, 1 mL IPA, 4 mL water",Aggregated
same,Observation,"2 mg PVPK90, 1 mL MeOH, 4 mL water",Precipitation did not occur
same,Observation,"2 mg Pluronic PE6800, 1 mL ACE, 4 mL water",Aggregated immediately
same,Observation,"2 mg Pluronic PE6800, 1 mL EtOH, 4 mL water",Aggregated
same,Observation,"2 mg Pluronic PE6800, 1 mL IPA, 4 mL water",Aggregated
same,Observation,"2 mg Pluronic PE6800, 1 mL MeOH, 4 mL water",Cloudy immediately
same,Observation,"2 mg Pluronic PE6800, 1 mL THF, 5 mL water",Aggregated
same,Observation,"2 mg Pluronic PE10500, 1 mL ACE, 4 mL water",Aggregated immediately
same,Observation,"2 mg Pluronic PE10500, 1 mL EtOH, 4 mL water",Aggregated
same,Observation,"2 mg Pluronic PE10500, 1 mL IPA, 4 mL water",Aggregated
same,Observation,"2 mg Pluronic PE10500, 1 mL MeOH, 4 mL water",Cloudy immediately
same,Observation,"2 mg Pluronic PE10500, 1 mL THF, 4 mL water",Aggregated
same,Observation: Aggregated within,"2 mg Soluplus, 1 mL ACE, 4 mL water",Aggregated within 5 min
same,"Observation: Slightly opalescent colloid, stable for","2 mg Soluplus, 1 mL EtOH, 4 mL water",stable for 5 min
same,Observation,"2 mg Soluplus, 1 mL MeOH, 4 mL water",Precipitation did not occur
same,Observation,"2 mg Soluplus, 1 mL THF, 4 mL water",Aggregated
same,Observation,"2 mg Solutol, 1 mL ACE, 4 mL water",Aggregated immediately
same,Observation,"2 mg Solutol, 1 mL EtOH, 4 mL water",Aggregated
same,Observation,"2 mg Solutol, 1 mL IPA, 4 mL water",Aggregated
same,Observation,"2 mg Solutol, 1 mL MeOH, 4 mL water",Aggregated
same,Observation,"2 mg Solutol, 1 mL THF, 4 mL water",Aggregated
same,Observation: Aggregated within,"2 mg TPGS, 1 mL ACE, 4 mL water",Aggregated within 5 min
same,Observation,"2 mg TPGS, 1 mL EtOH, 4 mL water",Aggregated
same,Observation,"2 mg TPGS, 1 mL IPA, 4 mL water",Aggregated
same,Observation: Aggregated after,"2 mg TPGS, 1 mL MeOH, 4 mL water",Aggregated after 25 min
same,Observation,"2 mg TPGS, 1 mL THF, 4 mL water",Aggregated
same,Observation,"2 mg Tetronic, 1 mL ACE, 4 mL water",Aggregated immediately
same,Observation,"2 mg Tetronic, 1 mL EtOH, 4 mL water",Aggregated
same,Observation,"2 mg Tetronic, 1 mL IPA, 4 mL water",Aggregated
same,Observation,"2 mg Tetronic, 1 mL MeOH, 4 mL water",Cloudy immediately
same,Observation,"2 mg Tetronic, 1 mL THF, 4 mL water",Aggregated
same,Observation: Aggregated within,"3 mg Luviskol VA64, 1 mL EtOH, 0.0001M NaOH solution",Aggregated within 1 day
same,Observation: Stable for,"3 mg Luviskol VA64, 1 mL EtOH, 0.001M NaOH solution",Stable for 3 days at RT
same,Observation: Stable for,"3 mg Luviskol VA64, 1 mL EtOH, 0.01M NaOH solution",Stable for 3 days at RT
same,Observation: Stable for,"3 mg Luviskol VA64, 1 mL EtOH, 0.1M NaOH solution",Stable for 3 days at RT
same,Observation,"3 mg Luviskol VA64, 1 mL EtOH, 7 mL 0.05 mg/mL NaOAc solution",Aggregated immediately
same,Observation: Stable for,"3 mg Luviskol VA64, 1 mL EtOH, 7 mL 0.5 mg/mL NaOAc solution",Stable for 3 days at RT
same,Observation,"3 mg PVP10, 1 mL EtOH, 7 mL 0.05 mg/mL NaOAc solution",Aggregated immediately
same,Observation: Aggregated within,"3 mg PVP10, 1 mL EtOH, 7 mL 0.5 mg/mL NaOAc solution",Aggregated within 1 hour
same,Observation,"3 mg PVP40, 1 mL EtOH, 7 mL 0.05 mg/mL NaOAc solution",Aggregated immediately
same,Observation: Stable for,"3 mg PVP40, 1 mL EtOH, 7 mL 0.5 mg/mL NaOAc solution",Stable for 1 day at RT
same,Observation,"4 mg Luviskol VA64, 1 mL EtOH, 7 mL 0.05 mg/mL NaOAc solution",Aggregated immediately
same,Observation: Aggregated within,"4 mg Luviskol VA64, 1 mL EtOH, 7 mL 0.5 mg/mL NaOAc solution",Aggregated within 1 day
same,Observation,"4 mg PVP10, 1 mL EtOH, 7 mL 0.05 mg/mL NaOAc solution",Aggregated immediately
same,Observation: Aggregated within,"4 mg PVP10, 1 mL EtOH, 7 mL 0.5 mg/mL NaOAc solution",Aggregated within 1 hour
same,Observation,"4 mg PVP40, 1 mL EtOH, 7 mL 0.05 mg/mL NaOAc solution",Aggregated immediately
same,Observation: Aggregated within,"4 mg PVP40, 1 mL EtOH, 7 mL 0.5 mg/mL NaOAc solution",Aggregated within 1 day
same,Observation,"no stabilizer (—), 1 mL ACE, 4 mL water",Aggregated
same,Observation,"no stabilizer (—), 1 mL EtOH, 4 mL water",Aggregated
same,Observation,"no stabilizer (—), 1 mL IPA, 4 mL water",Aggregated
same,Observation,"no stabilizer (—), 1 mL MeOH, 4 mL water",Aggregated
